Results reported in patent US20240287575A1, “Role of Human Pegivirus (HPGV) in Parkinson's Disease: Implications for Diagnosis and Treatment” (Northwestern University, priority 2023, published 2024).

System: normal human astrocytes (NHA)
Assay: Gene expression in NHA exposed to inflammatory cytokines (qPCR)
Type: cell-based
Details: for SNCA expression induction: NHA exposed to cytokine for 24 hours, no significant difference between infected and uninfected cells; for LCN2 expression induction: NHA, HPgV-infected and uninfected, exposed to cytokine for 24 hours
Method: As previously stated, iPSC-derived PD astrocytes show increased expression of LCN2 and GFAP following exposure to inflammatory conditions. Inflammation can additionally induce A1 phenotypic skewing in astrocytes.^4 Therefore, the analysis of mtDNA, PD astrocyte-associated genes, and A1/A2 skewing was repeated on NHA that were exposed to the inflammatory cytokine IL1β, IFNγ, or TNFα for 24 hours. mtDNA copy number was reduced in infected cells exposed to cytokines as compared to uninfected cells exposed to cytokines (FIG. 5A; IL1β p=0.0004; IFNγ p=0.001; TNFα p=0.03). […] SNCA expression was induced 10-fold following exposure to IL1β.
Normal human astrocytes (NHA): Cryopreserved NHA were obtained from Lonza. NHA were maintained in Astrocyte Basal Medium with Astrocyte Growth Medium SingleQuot supplements (Lonza). NHA were seeded at 5×10^3 cells/cm and allowed to reach confluency before splitting and seeding into new cell culture vessels, which took approximately 10 days. Medium was changed 24 hours after seeding and every subsequent 48 hours. NHA were discarded at passage 10.
Quantification of PD astrocyte associated gene expression was performed on similarly extracted RNA, following DNAse digestion and isopropanol precipitation. DNAse-treated RNA was resuspended in 50 μL of nuclease-free H2O, quantitated using the Qubit BR ssRNA kit, and diluted to 40 ng/μL. Commercially available TaqMan gene expression assays against GFAP (#Hs00909233; Fisher Scientific), LCN2 (#Hs01008571), SNCA (#Hs00240906), and ITPR2 (#Hs00181916), using FAM as a detector, were each multiplexed with GAPDH (housekeeping gene; #Hs02786624) using VIC as a detector. Each assay was run in duplicate 20 μL reactions, with 5 μL of diluted template RNA, 1 μL of each appropriate 20× assay, and 5 μL of TaqMan Fast Virus 1-step master mix. ΔΔCT was calculated as previously described.

Substance	SNCA expression induction	LCN2 expression induction
IFNγ: inflammatory cytokine	observed to a lesser extent	
IL1β: inflammatory cytokine	10 fold	induced LCN2 expression in both infected and uninfected cells
TNFα	observed to a lesser extent	significantly induced expression of LCN2 in infected cells but not uninfected cells
